Measured values published in patent publication US11607424B2, “Carbon-rich micro-particles for protecting bees and overcoming colony collapse disorder” (WASHINGTON STATE UNIVERSITY, priority 2018, dated 2023).

System: honey bees
Assay: Detoxification effects: caged adult bees chronically exposed orally to 50 ppb Thiamethoxam with or without CMPs
Format: in vivo
Conditions: 50 ppb TXM, absence of CMPs
Description: A total of 70 plastic cages (15 cm×8 cm×10 cm) with a removable cover were used FIGS. 4A and B). Adult honey bees were collected from broods of at least seven colonies and homogenously distributed in all control and experimental cages to eliminate possible colony-level effects on the results. Cages were loaded with 100 bees per cage and then incubated in complete darkness at 30° C. and 70% relative humidity (RH). Bees were fed a sugar solution (50% w/v). The CMPs were administered at a concentration of 1% w/v in the sugar solution and delivered to experimental cages on day 2. Stock solutions of Thiamethoxam (TXM) (3-[(2-Chloro-1,3-thiazol-5-yl)methyl]-5-methyl-N-nitro-1,3,5-oxadiazinan-4-imine) were prepared from analytical grade TMX (Sigma Aldrich 37924-100MG-R) at concentration of 30 mg/L in E-pure water, and maintained at 4° C. The pesticide was administered at a concentration of 50 ppb on day 2. […]
Treatments were arranged in a completely randomized design. […] The mortality rates and feed consumption were recorded daily. Production and morphology of bee feces (frass) were assessed to ensure that CMPs passed through the bees digestive system with no harm. Bee behavior and activity (i.e. number of falls per 30 seconds, inability to climb, etc.) were also assessed. Dispensability of the CMPs in the sugar solutions were also assessed during the experiments. […]

SMILES: CN1COCN(Cc2cnc(Cl)s2)C1=N[N+](=O)[O-] [TXM, 3-[(2-Chloro-1,3-thiazol-5-yl)methyl]-5-methyl-N-nitro-1,3,5-oxadiazinan-4-imine]
- bee deaths (daily die-off) on day 2: 2.5%
- bee deaths (daily die-off) on day 5: 21%
